Measurements: patent US20220339143A1, “TAK-925 FOR USE IN TREATING NARCOLEPSY” (Takeda Pharmaceutical Company Limited, priority 2019, published 2022)

System: patients with narcolepsy type 1 (NT1)
Assay: Subjective daytime sleepiness as assessed by Karolinska Sleepiness Scale (KSS), single dose (Cohorts 5, 6, 7)
Type: in vivo, human
Experimental: Daytime sleepiness as assessed by the Karolinska Sleepiness Scale (KSS).
Daytime sleepiness as assessed by KSS at predose and hourly until 11 hours after the start of infusion is presented in Table 13 as summary, in Table 14 as ANOVA and in Table 15 as ANOVA of change from baseline.

[1] = Cmpd A 5 mg (N = 6), 9 hr after start of infusion
[2] = Cmpd A 5 mg (N = 6), 10 hr after start of infusion
[3] = Cmpd A 5 mg (N = 6), 11 hr after start of infusion
[4] = Cmpd A 11.2 mg (N = 4), 1 hr after start of infusion
[5] = Cmpd A 11.2 mg (N = 4), 2 hr after start of infusion
[6] = Cmpd A 11.2 mg (N = 4), 3 hr after start of infusion
[7] = Cmpd A 11.2 mg (N = 4), 4 hr after start of infusion
[8] = Cmpd A 11.2 mg (N = 4), 5 hr after start of infusion
[9] = Cmpd A 11.2 mg (N = 4), 6 hr after start of infusion
[10] = Cmpd A 11.2 mg (N = 4), 7 hr after start of infusion
[11] = Cmpd A 11.2 mg (N = 4), 8 hr after start of infusion
[12] = Cmpd A 11.2 mg (N = 4), 9 hr after start of infusion
[13] = Cmpd A 11.2 mg (N = 4), 10 hr after start of infusion
[14] = Cmpd A 11.2 mg (N = 4), 11 hr after start of infusion
[15] = Cmpd A 44.8 mg (N = 4), 1 hr after start of infusion
[16] = Cmpd A 44.8 mg (N = 4), 2 hr after start of infusion
[17] = Cmpd A 44.8 mg (N = 4), 3 hr after start of infusion
[18] = Cmpd A 44.8 mg (N = 4), 4 hr after start of infusion
[19] = Cmpd A 44.8 mg (N = 4), 5 hr after start of infusion
[20] = Cmpd A 44.8 mg (N = 4), 6 hr after start of infusion
[21] = Cmpd A 44.8 mg (N = 4), 7 hr after start of infusion
[22] = Cmpd A 44.8 mg (N = 4), 8 hr after start of infusion
[23] = Cmpd A 44.8 mg (N = 4), 9 hr after start of infusion
[24] = Cmpd A 44.8 mg (N = 4), 10 hr after start of infusion
[25] = Cmpd A 44.8 mg (N = 4), 11 hr after start of infusion

COC(=O)N1CCC[C@H](NS(C)(=O)=O)[C@@H]1CO[C@H]1CC[C@@H](c2ccccc2)CC1 [Compound A, methyl (2R,3S)-3-((methylsulfonyl)amino)-2-(((cis-4-phenylcyclohexyl)oxy)methyl)piperidine-1-carboxylate]
−2.0: KSS Change from Baseline, Mean [4] | KSS Change from Baseline, Median [16]
2.7: KSS Observed Value at Visit, Mean [2]
lower (greater alertness): KSS ratings vs pooled placebo group (all time points over 9 hour infusion period)
1.0: KSS Change from Baseline, Median [14] | KSS Observed Value at Visit, Median [15] | KSS Observed Value at Visit, Median [16] | KSS Observed Value at Visit, Median [19] | KSS Observed Value at Visit, Median [23] | KSS Observed Value at Visit, Median [24]
2.8: KSS Observed Value at Visit, Mean [10]
4.0: KSS Observed Value at Visit, Median [14]
3.3: KSS Observed Value at Visit, Mean [3]
2.3: KSS Observed Value at Visit, Mean [5] | KSS Observed Value at Visit, Mean [9] | KSS Observed Value at Visit, Mean [11]
−1.7: KSS Change from Baseline, Mean [3]
−1.5: KSS Change from Baseline, Median [3] | KSS Change from Baseline, Mean [5] | KSS Change from Baseline, Mean [9] | KSS Change from Baseline, Mean [11] | KSS Change from Baseline, Mean [15] | KSS Change from Baseline, Median [15] | KSS Change from Baseline, Mean [16] | KSS Change from Baseline, Mean [19] | KSS Change from Baseline, Median [19] | KSS Change from Baseline, Mean [24] | KSS Change from Baseline, Median [24]
−0.8: KSS Change from Baseline, Mean [22]
−0.5: KSS Change from Baseline, Median [9] | KSS Change from Baseline, Median [10] | KSS Change from Baseline, Median [12]
4.3: KSS Observed Value at Visit, Mean [14]
2.0: KSS Observed Value at Visit, Median [2] | KSS Observed Value at Visit, Median [5] | KSS Observed Value at Visit, Mean [7] | KSS Observed Value at Visit, Median [7] | KSS Observed Value at Visit, Mean [8] | KSS Observed Value at Visit, Median [8] | KSS Observed Value at Visit, Median [9] | KSS Observed Value at Visit, Mean [22] | KSS Observed Value at Visit, Median [22]
−1.3: KSS Change from Baseline, Mean [6] | KSS Change from Baseline, Mean [12] | KSS Change from Baseline, Mean [20] | KSS Change from Baseline, Mean [21] | KSS Change from Baseline, Mean [23] | KSS Change from Baseline, Mean [25]
5.0: KSS Observed Value at Visit, Mean [13]
0.5: KSS Change from Baseline, Mean [14]
5.5: KSS Observed Value at Visit, Median [13]
greater for Compound A vs placebo: mean reduction in KSS from baseline vs placebo (single dose, NT1)
1.3: KSS Change from Baseline, Mean [13] | KSS Observed Value at Visit, Mean [15] | KSS Observed Value at Visit, Mean [16] | KSS Observed Value at Visit, Mean [19] | KSS Observed Value at Visit, Mean [24]
−1.0: KSS Change from Baseline, Median [4] | KSS Change from Baseline, Median [5] | KSS Change from Baseline, Median [6] | KSS Change from Baseline, Median [7] | KSS Change from Baseline, Median [8] | KSS Change from Baseline, Mean [10] | KSS Change from Baseline, Median [11] | KSS Change from Baseline, Mean [17] | KSS Change from Baseline, Median [17] | KSS Change from Baseline, Mean [18] | KSS Change from Baseline, Median [18] | KSS Change from Baseline, Median [20] | KSS Change from Baseline, Median [21] | KSS Change from Baseline, Median [22] | KSS Change from Baseline, Median [23] | KSS Change from Baseline, Median [25]
1.8: KSS Observed Value at Visit, Mean [4] | KSS Observed Value at Visit, Mean [17] | KSS Observed Value at Visit, Mean [18]
1.5: KSS Observed Value at Visit, Median [4] | KSS Observed Value at Visit, Median [17] | KSS Observed Value at Visit, Median [18] | KSS Observed Value at Visit, Mean [20] | KSS Observed Value at Visit, Median [20] | KSS Observed Value at Visit, Mean [21] | KSS Observed Value at Visit, Median [21] | KSS Observed Value at Visit, Mean [23] | KSS Observed Value at Visit, Mean [25] | KSS Observed Value at Visit, Median [25]
−2.5: KSS Change from Baseline, Mean [1] | KSS Change from Baseline, Median [1] | KSS Change from Baseline, Median [2]
−1.8: KSS Change from Baseline, Mean [7] | KSS Change from Baseline, Mean [8]
−2.3: KSS Change from Baseline, Mean [2]
2.5: KSS Observed Value at Visit, Mean [1] | KSS Observed Value at Visit, Median [1] | KSS Observed Value at Visit, Mean [6] | KSS Observed Value at Visit, Median [11] | KSS Observed Value at Visit, Mean [12] | KSS Observed Value at Visit, Median [12] | KSS Change from Baseline, Median [13]
3.0: KSS Observed Value at Visit, Median (Cmpd A 5 mg (N = 6), 8 hr after start of infusion) | KSS Observed Value at Visit, Median [3] | KSS Observed Value at Visit, Median [6] | KSS Observed Value at Visit, Median [10]
